# Values of other authors as cited in patent US4134792A, “Specific binding assay with an enzyme modulator as a labeling substance” (Miles Laboratories, Inc., priority 1976, dated 1979).
# Test system: glycogen synthetase
# Design: key: inhibitory or negative effectors are indicated by (-); stimulatory or positive effectors are indicated by (+)
# Conditions: yeast and lamb muscle; cited from earlier work
smiles,measurement,value
O=P(O)(O)OC[C@H]1OC(O)[C@H](O)[C@@H](O)[C@@H]1O (stereo partly shown) [glucose-6-phosphate],allosteric effector: inhibitory (-) or stimulatory (+),+
